# Test results published in ChEMBL document CHEMBL1177687, “Synthesis and CYP24A1 inhibitory activity of N-(2-(1H-imidazol-1-yl)-2-phenylethyl)arylamides” (Bioorg Med Chem, 2010).
# Molecular target: T1, 1,25-dihydroxyvitamin D(3) 24-hydroxylase, mitochondrial (Homo sapiens, UniProt Q07973)
# T1 sequence (Q07973 whole entry): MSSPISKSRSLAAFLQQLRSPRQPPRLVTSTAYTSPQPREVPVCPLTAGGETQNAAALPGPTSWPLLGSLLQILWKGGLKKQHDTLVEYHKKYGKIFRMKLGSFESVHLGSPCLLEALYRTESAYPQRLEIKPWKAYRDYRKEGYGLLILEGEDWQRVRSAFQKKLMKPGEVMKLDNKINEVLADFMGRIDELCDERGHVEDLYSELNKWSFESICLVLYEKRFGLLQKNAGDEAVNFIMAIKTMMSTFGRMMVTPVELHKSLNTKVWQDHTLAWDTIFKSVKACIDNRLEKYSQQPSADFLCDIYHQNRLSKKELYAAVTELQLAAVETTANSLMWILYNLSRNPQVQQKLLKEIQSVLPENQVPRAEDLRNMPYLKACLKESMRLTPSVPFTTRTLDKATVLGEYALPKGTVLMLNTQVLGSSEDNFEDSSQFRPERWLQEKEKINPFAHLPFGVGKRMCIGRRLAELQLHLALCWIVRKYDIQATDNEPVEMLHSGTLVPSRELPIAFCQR
# Experiment: Inhibition of CYP24A1
# Assay type: ADME
row,IC50,SMILES
1,0.0151 µM,O=C(NC[C@@H](c1ccccc1)n1ccnc1)c1ccc(-c2ccc(Cl)cc2)cc1

# Molecular target: T1, 1,25-dihydroxyvitamin D(3) 24-hydroxylase, mitochondrial
# Experiment: Inhibition of human recombinant CYP24A1 expressed in chinese hamster V79 cells using [3H-1-beta]calcitriol after 60 mins by scintillation counting
# Assay type: ADME, cell-based
row,IC50,SMILES
1,2.8 µM,O=C(NCC(c1ccc(F)cc1)n1ccnc1)c1cc2ccccc2o1 (centres undefined)
2,6.4 µM,O=C(NCC(c1ccccc1)n1ccnc1)c1cc2cc([N+](=O)[O-])ccc2o1 (centres undefined)
3,4 µM,O=C(NCC(c1ccccc1)n1ccnc1)c1cc2ccccc2o1 (centres undefined)
4,36.9 µM,COc1ccc2cc(C(=O)NCC(c3ccccc3)n3ccnc3)oc2c1 (centres undefined)

# The remaining lines, values behind:
row,SMILES,IC50
1,O=C(NCC(c1ccc(Cl)cc1)n1ccnc1)c1cc2ccccc2o1 (centres undefined),10.6 µM
2,O=C(NCC(c1ccccc1)n1ccnc1)c1ccc(Cc2ccccc2)cc1 (centres undefined),72 µM
3,O=C(NCC(c1ccccc1)n1ccnc1)c1ccc(Br)cc1 (centres undefined),23 µM
4,O=C(NCC(c1ccccc1)n1ccnc1)c1ccc(/C=C/c2ccccc2)cc1 (centres undefined),0.3 µM
